Test results taken from ChEMBL document CHEMBL5233243, “Design and discovery of boronic acid drugs” (Eur J Med Chem, 2020).
pIC50, pKi: −log10 of the molar value. ≈ marks a conversion by molar mass, not a printed value. Each block holds one compound with its values, some of them ahead of it. Residues, ends and D or L forms follow the SMILES beside them. *: point of attachment. CF3 = FC(F)(F)*; Moc = COC(=O)*

Legend:
[1] = biological target: Human immunodeficiency virus type 1 protease (Human immunodeficiency virus 1, UniProt Q72874); experiment: Inhibition of HIV-1 protease
[2] = tested on: Human immunodeficiency virus; experiment: Antiviral activity against HIV infected in human MT-2 cells; format: functional, organism-based; conditions: Human immunodeficiency virus 1, MT2
[3] = Inhibition of beta-lactamase AmpC (unknown origin); design: species or system Bacteria
Escherichia coli = experiment: Antibacterial activity against Escherichia coli; format: functional
Neutrophil elastase = biological target: T1, Neutrophil elastase (Homo sapiens, UniProt P08246); experiment: Inhibition of human neutrophil elastase
T1 sequence (P08246 whole entry): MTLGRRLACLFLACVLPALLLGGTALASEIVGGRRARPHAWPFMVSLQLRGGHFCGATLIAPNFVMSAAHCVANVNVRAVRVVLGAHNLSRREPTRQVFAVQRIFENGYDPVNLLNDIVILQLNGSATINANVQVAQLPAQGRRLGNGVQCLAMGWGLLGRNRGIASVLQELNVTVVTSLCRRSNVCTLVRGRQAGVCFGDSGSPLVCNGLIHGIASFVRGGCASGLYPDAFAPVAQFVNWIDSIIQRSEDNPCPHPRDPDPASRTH

[4] = Solubility of compound at pH 2; format: physicochemical; conditions: buffer
Autotaxin = Autotaxin (Homo sapiens, UniProt Q13822); experiment: Inhibition of autotaxin (unknown origin)
MCF7 = experiment: Antiproliferative activity against human MCF7 cells assessed as inhibition of cell growth incubated for 48 hrs by SRB assay; format: functional, cell-based; conditions: MCF7, 48 h

Compound: O=S(=O)(Cc1ccc(-c2nnn[nH]2)nc1)NCB(O)O
pKi [3]: 9.10

Compound: COC(=O)N[C@H](C(=O)N1CCC[C@H]1C(=O)N[C@H](C(=O)C(F)(F)F)C(C)C)C(C)C (Moc-Val-Pro-Val-CF3)
pIC50 (Neutrophil elastase): 6.87

Compound: COc1ccc(/C=C\c2cc(OC)c(OC)c(OC)c2)cc1B(O)O
solubility [4]: 33.8 µg/mL (≈ 98.2 µM)

Compound: COc1ccc(/C=C\c2cc(OC)c(OC)c(OC)c2)cc1O [COMBRETASTATIN A4]
pIC50 (MCF7): 7.49
solubility [4]: 18.9 µg/mL (≈ 59.7 µM)

Compound: COC(=O)N[C@H](C(=O)N1CCC[C@H]1C(=O)N[C@H](B(O)O)C(C)C)C(C)C
pIC50 (Neutrophil elastase): 9.57

Second part, the compound after the results:

pKi [1]: 10.89
pIC50 [2]: < 6.00
Compound: CC(C)CN(C[C@@H](O)[C@H](Cc1ccccc1)NC(=O)O[C@H]1CO[C@H]2OCC[C@H]21)S(=O)(=O)c1ccc(C(=O)O)cc1

pKi [3]: 8.00
MIC (Escherichia coli): 1 µg/mL (≈ 4.46 µM)
Compound: OB(O)c1cnn(-c2cc(Cl)ncn2)c1

pKi [1]: 10.81
pIC50 [2]: 7.42
Compound: CC(C)CN(C[C@@H](O)[C@H](Cc1ccccc1)NC(=O)OC1C2COC3OCC1C3C2)S(=O)(=O)c1ccc(B(O)O)cc1 (stereo partly drawn)

pIC50 (Autotaxin): 7.55
Compound: COc1cc(/C=C2\SC(=O)N(Cc3ccc(F)cc3)C2=O)ccc1OCc1ccc(B(O)O)cc1
